Structures can show the parent of a compound that is named as a salt. Where two headings read alike, the source gives them in different places.
How the values were obtained:
[1] = tested on: Streptococcus pneumoniae R6; experiment: Growth inhibition / lysis screening of planktonic cultures (OD550/600); assay type: cell-based; design: key: (+++) full inhibition; (++) partial inhibition; (+) growth retardation; -: (−) no effect; conditions: S. pneumoniae R6, 50 and 100 μM compound added at early logarithmic phase (T1), OD550/600 followed 10 h, 37°C
Protocol: (§1) Planktonic cultures of selected pathogens (S. pneumoniae R6, S. pyogenes ^T, Staphylococcus aureus ^T, Escherichia coli DH10B, and Pseudomonas aeruginosa PAO1 strains) on early logarithmic-phase (T1) were assayed for their sensitivity to a broad range of DICAM compounds, as indicated in Table 1. Their bacteriostatic or lytic effect was first tested by measuring the variation of the OD550/600 as a function of time (10 h) when (50/100 μM) DICAMs were added, compared to untreated controls. The screening results, summarized in Table 1, evidenced that a potent antimicrobial activity may exist even when the negative charge of the peptide was higher than in the prototype compounds.
(§2) Susceptibility to DICAMs was first tested by growth-inhibition assays at 50 and 100 μM of compound. Briefly, working solutions at 5 mM or 10 mM DICAM in pure DMSO were prepared from DICAM stocks (40 mM in pure DMSO) and diluted with fresh culture medium to 5× the desired final concentration. Aliquots (50 µL) of these solutions were added to 200 µL of bacterium cultures grown to early exponential phase (OD550/600 c. a. 0.15–0.2 in sterile 96-well plates (Cultek, Spain). Incubation continued for 10 h at 37°C and turbidity (OD550/600) values were measured every 20 min to monitor growth and lysis, using a VersaMax microplate reader (Molecular Devices; United Kingdom). Next, the activity dependence on DICAM’s dose was examined by measuring the turbidity of treated and untreated cultures as a function of time. Also, the decay of bacterial viability (CFU/mL) at selected times of treatment was assessed by colony counting on LB-agar or TSA plates after overnight incubation at 37°C. By default, 10 μL of 10-fold serially diluted samples were plated, which set the lower detection limit at 10^2 CFU/mL (10^1 CFU/mL when 100 μL of the undiluted sample was seeded).

[2] = tested on: S. pneumoniae D39; assay type: cell-based, Streptococcus pneumoniae; conditions: for SC (stationary concentration, Δlog = 0), S. pneumoniae D39 / EC50 / Δlogmax, S. pneumoniae D39: 1 h treatment, Hill fit; for SC (stationary concentration, Δlog = 0), S. pneumoniae D39: C + Y medium, added at T1, 10^7–10^8 CFU/mL, CFU vs untreated controls; for EC50 / Δlogmax, S. pneumoniae D39: C + Y; for EC50: read-out: K 1/2 (concentration yielding half-variation in Δlogmax), S. pneumoniae D39 (converted); for Δlogmax, S. pneumoniae D39: maximum variation in viability; for Reduction of the number of viable cells at 3 × SC, S. pneumoniae: after 1-h incubation at 3 × SC values
Source text: First, the substitution of the fatty amino chain of 18 carbon atoms of the reference compound DICAM 2 by either an OMe group (methylated tripeptide DICAM 5) or an amine with 12 carbon atoms (DICAM 9) abolished the activity against all three pathogens. However, the activity remained intact when the chain of the fatty amine of prototypes DICAMs 1 and 4 was two carbon atoms shorter (DICAM 10 and DICAM 12, respectively), based on S. pneumoniae and S. pyogenes results. […] Third, Glu and Ala were tolerated as C-terminal residues of the lipotripeptides. […] In addition, deletion of the C-terminal Glu (DICAM 13) eradicated the activity against S. pneumoniae and S. aureus. However, a delay and small inhibition of S. pyogenes ^T growth was still observed. Fourth, Glu (DICAMs 19 and 20) and Orn (DICAMs 21 and 22) were tolerated as N-terminal residues, with the impact of these modifications being pathogen-dependent. […] SAR studies continued by measuring the dose dependence of DICAM’s activity at T1 with all the compounds found to be active against S. pyogenes or S. aureus in the initial screening, and all but one compound in the case of S. pneumoniae. The OD values of bacterial cultures were monitored after DICAM addition, and the decrease in the number of viable bacteria was measured relative to controls (Figures 4–6; Supplementary Figure S1). As antibacterial efficacy may decline with the bacterium dose in the inoculum ([Belley et al., 2009]; [Udekwu et al., 2009]; [Luca et al., 2013]), the assays were performed using the bacterial concentrations necessary for the fluorescence experiments in Section 2.3 (10^7–10^8 CFU/mL). At these high bacterial densities, MICs were determined as the DICAM concentration at which bacteria neither grow nor are killed (the stationary concentration (SC)), following [Udekwu et al., 2009]. By fitting the logarithmic plot of cell viability decrease vs. the DICAM dose to a Hill function (see Section 5.2.3.1) we were able to determine the maximum variation in viability (Δlogmax = ∆log f - ∆log 0, where ∆log f and ∆log 0 are the upper and lower limits of Δlog) in the assay conditions, the SC concentration (Δlog = 0), the dose required for half-variation in Δlogmax (K 1/2), and the cooperativity of the antimicrobial effect (N H).
as §2
As antibacterial efficacy may decline with the bacterium dose in the inoculum ([Belley et al., 2009]; [Udekwu et al., 2009]; [Luca et al., 2013]), activity assays were performed using the bacterial concentrations required for the fluorescence experiments in Section 2.3 (10^7–10^8 CFU/mL). At such bacterial densities, MICs were determined as the DICAM concentration at which bacteria neither grow nor are killed under assay conditions (the stationary concentration (SC)), as indicated in Section 2.2. […]

[3] = tested on: human fetal lung fibroblasts IMR-90; assay type: cell-based
Protocol: DICAM’s cytotoxicity was determined employing a modified MTT assay as described elsewhere ([Antúnez-Mojica et al., 2016]) using human lung carcinoma epithelial cells A549, human fetal lung fibroblasts IMR-90, and human HeLa cervix carcinoma cells treated with increasing concentrations of DICAMs (0.8–200 µM range). A549 cells were grown in RPMI 1640 (Gibco; Fisher Scientific, Spain) supplemented with 10% FCS, 2 mM glutamine, 100 IU/mL penicillin and 100 μg/mL streptomycin. IMR-90 and HeLa cells were cultured in DMEM (Gibco; Fisher Scientific, Spain) supplemented with 10% FCS, 2 mM L-glutamine, 1 mM pyruvate, […] penicillin, 100 μg/mL streptomycin and 40 μg/mL gentamycin. Cell viability was assessed after 48 h exposure to DICAMs. Vinblastine was used as a positive control. IC50 value is the concentration that gives 50% inhibition of cell growth and was determined using SigmaPlot (Systat) fitting to a Four Parameter Logistic curve.

[4] = tested on: Streptococcus pyogenes T; experiment: Growth inhibition screening of planktonic cultures (OD550/600); assay type: cell-based; design: key: (+++) full inhibition; (++) partial inhibition; (+) growth retardation; -: (−) no effect; conditions: S. pyogenes T, 50 and 100 μM compound added at T1, OD550/600 followed 10 h, 37°C
Protocol: as §1, §2

[5] = S. pneumoniae D39, 50 μM (Supplementary Figure S1F), C+Y, 37°C
[6] = S. pneumoniae D39, within 60 min

Compound	Growth halt or lysis (50/100 μM), Spn [1]	SC (stationary concentration, Δlog = 0), S. pneumoniae D39 ([2]; 37°C)	EC50 ([2]; 37°C) [µM]	Δlogmax, S. pneumoniae D39 ([2]; 37°C) [logarithmic units]	IC50 ([3]; 48 h) [µM]	Growth halt or lysis (50/100 μM), Spy T [4]	Cell killing after 60 min of incubation [2, 5] [%]	Time to nearly sterilize the culture ([2]; S. pneumoniae D39, 50 μM, C+Y, 37°C, legend of Supplementary Figure S1F)	Reduction of the number of viable cells at saturating doses [2, 6] [log-units]	Reduction of the number of viable cells at 3 × SC, S. pneumoniae [2]	IC50 ([3]; modified MTT, 48 h exposure, 0.8–200 µM, four parameter logistic fit, ± SD, at least three independent experiments, read-out: IC50 IMR-90) [µM]	Time required to reduce the viability by 99.99% [2, 5] [h]	Viability decrease in 1 h [2, 5]	Bacterial viability reduction at 10 μM ([2]; S. pneumoniae D39, within 60 min, 10 μM) [%]	Bacterial viability reduction at ≈ 5 μM ([2]; S. pneumoniae D39, within 60 min, ≈ 5 μM) [%]
CCCCCCCCCCCCCCCCCCNC(=O)[C@H](CCC(=O)O)NC(=O)[C@H]1CCCN1C(=O)[C@@H](N)CCCN [DICAM 22, Orn- Pro -Glu-NH-C18H37 · HCl]	+++	20 ± 8 µM	22 ± 8	1.4 ± 0.4	58 ± 0.4	++	–	–	–	–	–	–	–	–	–
CCCCCCCCCCCCCCCCCCNC(=O)[C@H](CCC(=O)O)NC(=O)[C@H]1CCCN1C(=O)[C@H](C)N [DICAM 4, Ala- Pro -Glu-NH-C18H37 ·HCl]	+++	4 ± 1.5 µM	13 ± 2	6.0 ± 0.4	65 ± 3	+++	≥ 99.999	less than 1 h	≥ 4.6	99.2%–99.8	–	–	–	–	–
CCCCCCCCCCCCCCCCCCNC(=O)[C@H](CCC(=O)O)NC(=O)[C@H]1CCCN1C(=O)[C@@H](N)CC(N)=O [DICAM 2, Asn- Pro -Glu-NH-C18H37 ·HCl]	+++	4.1 ± 0.6 µM	10.7 ± 0.4	4.6 ± 0.1	46.7 ± 0.7	+++	–	–	≥ 4.6	99.2%–99.8	–	–	–	–	–
Ala - Pro -Glu-NH-C18H37 · HCl [DICAM 23]	+++	2.9 ± 0.8 µM	8.6 ± 0.3	5.4 ± 0.2	–	+++	–	–	≥ 4.6	99.2%–99.8	57 ± 2	–	–	–	–
CCCCCCCCCCCCCCCCCCNC(=O)[C@H](CCC(=O)O)NC(=O)[C@H]1CCCN1C(=O)[C@H](CCCN)NC(=O)OCc1ccccc1 [DICAM 21, Cbz-Orn- Pro -Glu-NH-C18H37]	+++	8 ± 1 µM	9 ± 1	1.9 ± 0.1	86 ± 15	+++	–	–	–	–	–	–	–	–	–
CCCCCCCCCCCCCCCCCCNC(=O)[C@H](C)NC(=O)[C@H]1CCCN1C(=O)[C@H](C)N [DICAM 14, Ala- Pro -Ala-NH-C18H37 · HCl]	+++	∼33 µM	–	–	7.69 ± 0.06	+++	–	–	–	–	–	–	–	–	–
CCCCCCCCCCCCCCCCCCNC(=O)[C@H](CCC(=O)O)NC(=O)[C@H]1CCCN1C(=O)[C@H](C)NC(=O)OCc1ccccc1 [DICAM 3, Cbz-Ala- Pro -Glu-NH-C18H37]	+++	6.5 ± 0.5 µM	7.8 ± 0.4	1.51 ± 0.04	75 ± 13	+++	–	–	–	–	–	2 to 2.5	≈ 90%	–	–
CCCCCCCCCCCCCCCCCCNC(=O)[C@H](CCC(=O)O)NC(=O)[C@H]1CCCN1C(=O)[C@H](C)NC(C)=O [DICAM 24, Ac-Ala- Pro -Glu-NH-C18H37]	+++	4 ± 0.8 µM	6.1 ± 0.6	2.2 ± 0.1	43.8 ± 0.6	+++	–	–	–	–	–	–	–	–	–
CCCCCCCCCCCCCCCCCCNC(=O)[C@H](CCC(=O)O)NC(=O)[C@H]1CCCN1C(=O)[C@@H](N)CCC(=O)O [DICAM 20, Glu- Pro -Glu-NH-C18H37 · HCl]	+++	3.0 ± 0.7 µM	4.4 ± 0.6	3.0 ± 0.1	78.6 ± 0.1	+++	–	–	–	99.2%–99.8	–	–	–	> 99.5	–
CCCCCCCCCCCCCCCCCCNC(=O)[C@H](CCC(=O)O)NC(=O)[C@H]1CCCN1C(=O)[C@H](CCC(=O)O)NC(=O)OCc1ccccc1 [DICAM 19, Cbz-Glu- Pro -Glu-NH-C18H37]	+++	3.0 ± 0.8 µM	~5	3.0 ± 0.2	44 ± 1	+++	–	–	–	99.2%–99.8	–	–	–	–	> 99.5
CCCCCCCCCCCCCCCCNC(=O)[C@H](CCC(=O)O)NC(=O)[C@H]1CCCN1C(=O)[C@H](CC(N)=O)NC(=O)OCc1ccccc1 [DICAM 10, Cbz-Asn- Pro -Glu-NH-C16H33]	+++	3.4 ± 0.5 µM	6.5 ± 0.3	3.13 ± 0.06	45 ± 1	+++	–	–	–	–	–	2 to 2.5	≈ 90%	–	–
